From patent US20260274814A1, “THIENYL COMPOUNDS FOR THE TREATMENT OF A CENTRAL NERVOUS SYSTEM DISEASE OR DISORDER” (Coreterra Therapeutics, Inc., priority 2023, published 2026)
Structures can show the parent of a compound that is named as a salt.

Test system: mice
Assay: Neuropharmacological Assay (SmartCube): automated behavioral signature of compound-treated mice compared with a database of reference drug classes
Type: in vivo
Settings: for MED (minimal effective dose) / minimal effective dose: dose having 45% or more total activity in SmartCube, i.p., if only one dose was tested, that dose is shown; for AG / AN / HL / MS / PS / UK / AD / AP / AX / CE / SH: probability that activity matches this class of agents, 3.0 mg/kg i.p., 15 min before test; for minimal effective dose: Mus musculus, ip, read-out: MED (minimal effective dose)
Text: Neurosci. 2011 Sep. 9; 5: 103 (doi: 10.3389/fnins.2011.00103) (“Roberds”). As reported in Roberds, because psychiatric diseases generally result from disorders of cell-cell communication or circuitry, intact systems are useful in detecting improvement in disease-relevant endpoints. These endpoints are typically behavioral in nature, often requiring human observation and interpretation. To facilitate testing of multiple compounds for behavioral effects relevant to psychiatric disease, PsychoGenics, Inc. (Tarrytown, NY, “PGI”) developed SmartCube™ an automated system in which behaviors of compound-treated mice are captured by digital video and analyzed with computer algorithms. (D. Brunner et al. Drug Discov. Today 2002, 7:S107-S112). PGI Analytical Systems uses data from SmartCube™ to compare the behavioral signature of a test compound to a database of behavioral signatures obtained using a large set of diverse reference compounds. (The composition of the database as well as validation of the method is further described in Roberds). In this way, the neuropharmacological effects of a test compound can be predicted by similarity to major classes of compounds, such as antipsychotics, anxiolytics and antidepressants.
The SmartCube™ system produces an activity signature indicating the probability that the activity of the test compound at the administered dose matches a given class of neuropharmacological agents. (See, e.g., Roberds, FIGS. 2 and 3). The test compound is simultaneously compared against multiple classes of agents; thus, a separate probability is generated for each behavioral effect measured (e.g., anxiolytic activity, analgesic activity, etc.). In table 2 below, these probabilities are reported for each behavioral effect measured as described in Table 1 below.
Provided compounds were dissolved in a mixture of Pharmasolve™ (N-methyl-2-pyrrolidone), polyethylene glycol and propylene glycol, and were injected i.p. 15 min. before the behavioral test. For each compound, injections were administered at 3 different doses. For each behavioral effect measured, results for the 3.0 mg/kg dose are presented. The potency of many of the compounds in the table was also determined in the SmartCube™ system. Test compounds were routinely examined at dose levels of 0.3, 1, 3 and 10 mg per kg (mpk), although the dose range was increased or decreased, if necessary, to obtain a full dose response curve. A compound's minimal effective dose (MED) is a measure of the compound's potency. The MED was defined as the dose (in mpk) having 45% or more total activity in SmartCube. If only one dose was tested, that dose is shown in the MED column of Table 2 even though the dose is not known to be the MED.

CNC1CCc2c(F)csc2C1 (single isomer, unassigned) [Compound 83, 3-fluoro-N-methyl-4,5,6,7-tetrahydrobenzothiophen-6-amine hydrochloride]
MED (minimal effective dose) (hydrochloride): 1 mpk
AG: ND (^ <4%)
AN: ND (^ <4%)
HL: ND (^ <4%)
MS: ND (^ <4%)
PS: ND (^ <4%)
UK: ND (^ <4%)
AD (hydrochloride, 3 mg/kg): ND (^ <4%)
AP (hydrochloride, 3 mg/kg): +++ (≥49%)
AX (hydrochloride, 3 mg/kg): + (≥4%)
CE (hydrochloride, 3 mg/kg): + (≥4%)
SH (hydrochloride, 3 mg/kg): ND (^ <4%)

CNC1CCc2c(F)csc2C1 (single isomer, unassigned) [Compound 84, 3-fluoro-N-methyl-4,5,6,7-tetrahydrobenzothiophen-6-amine hydrochloride]
MED (minimal effective dose) (hydrochloride): 0.1 mpk
AG: ND (^ <4%)
AN: ND (^ <4%)
HL: ND (^ <4%)
MS: ND (^ <4%)
PS: ND (^ <4%)
UK: ND (^ <4%)
AD (hydrochloride, 3 mg/kg): + (≥4%)
AP (hydrochloride, 3 mg/kg): ND (^ <4%)
AX (hydrochloride, 3 mg/kg): ND (^ <4%)
CE (hydrochloride, 3 mg/kg): ND (^ <4%)
SH (hydrochloride, 3 mg/kg): +++ (≥49%)

CC1(N)CCc2ccsc2C1 (single isomer, unassigned) [Compound 111, 6-methyl-5,7-dihydro-4H-benzothiophen-6-amine hydrochloride]
minimal effective dose: 3 mg/kg
AG: ND (^ <4%)
AN: ND (^ <4%)
AP: ND (^ <4%)
CE: ND (^ <4%)
HL: ND (^ <4%)
MS: ND (^ <4%)
SH: ND (^ <4%)
UK: ND (^ <4%)
AD (hydrochloride, 3 mg/kg): ++ (≥24%)
AX (hydrochloride, 3 mg/kg): ++ (≥24%)
PS (hydrochloride, 3 mg/kg): + (≥4%)

CC1(N)CCc2ccsc2C1 (single isomer, unassigned) [Compound 112, 6-methyl-5,7-dihydro-4H-benzothiophen-6-amine hydrochloride]
MED (minimal effective dose) (hydrochloride): >3 mpk
AG: ND (^ <4%)
AN: ND (^ <4%)
AP: ND (^ <4%)
CE: ND (^ <4%)
HL: ND (^ <4%)
MS: ND (^ <4%)
SH: ND (^ <4%)
UK: ND (^ <4%)
AD (hydrochloride, 3 mg/kg): + (≥4%)
AX (hydrochloride, 3 mg/kg): + (≥4%)
PS (hydrochloride, 3 mg/kg): ND (^ <4%)

CCc1scc2c1CCC(NC)C2 (single isomer, unassigned) [Compound 113, 1-ethyl-N-methyl-4,5,6,7-tetrahydro-2-benzothiophen-5-amine hydrochloride]
MED (minimal effective dose) (hydrochloride): 0.3 mpk
AG: ND (^ <4%)
AN: ND (^ <4%)
AX: ND (^ <4%)
CE: ND (^ <4%)
HL: ND (^ <4%)
MS: ND (^ <4%)
PS: ND (^ <4%)
SH: ND (^ <4%)
UK: ND (^ <4%)
AD (hydrochloride, 3 mg/kg): + (≥4%)
AP (hydrochloride, 3 mg/kg): ++++ (≥74%)

CCc1scc2c1CCC(NC)C2 (single isomer, unassigned) [Compound 114, 1-ethyl-N-methyl-4,5,6,7-tetrahydro-2-benzothiophen-5-amine hydrochloride]
MED (minimal effective dose) (hydrochloride): 3 mpk
AG: ND (^ <4%)
AN: ND (^ <4%)
AX: ND (^ <4%)
CE: ND (^ <4%)
HL: ND (^ <4%)
MS: ND (^ <4%)
PS: ND (^ <4%)
SH: ND (^ <4%)
UK: ND (^ <4%)
AD (hydrochloride, 3 mg/kg): +++ (≥49%)
AP (hydrochloride, 3 mg/kg): + (≥4%)

CCc1scc2c1CC(NC)CC2 (single isomer, unassigned) [Compound 115, 3-ethyl-N-methyl-4,5,6,7-tetrahydro-2-benzothiophen-5-amine hydrochloride]
minimal effective dose: 3 mg/kg
AD: ND (^ <4%)
AG: ND (^ <4%)
AN: ND (^ <4%)
AX: ND (^ <4%)
CE: ND (^ <4%)
HL: ND (^ <4%)
MS: ND (^ <4%)
PS: ND (^ <4%)
SH: ND (^ <4%)
UK: ND (^ <4%)
AP (hydrochloride, 3 mg/kg): ++++ (≥74%)

CCc1scc2c1CC(NC)CC2 (single isomer, unassigned) [Compound 116, 3-ethyl-N-methyl-4,5,6,7-tetrahydro-2-benzothiophen-5-amine hydrochloride]
MED (minimal effective dose) (hydrochloride): <3 mpk
AD: ND (^ <4%)
AG: ND (^ <4%)
AN: ND (^ <4%)
AX: ND (^ <4%)
CE: ND (^ <4%)
HL: ND (^ <4%)
MS: ND (^ <4%)
PS: ND (^ <4%)
SH: ND (^ <4%)
UK: ND (^ <4%)
AP (hydrochloride, 3 mg/kg): ND (^ <4%)

CCc1sc(CC)c2c1CCC(NC)C2 (single isomer, unassigned) [Compound 117, 1,3-diethyl-N-methyl-4,5,6,7-tetrahydro-2-benzothiophen-5-amine hydrochloride]
minimal effective dose: > 3 mg/kg
AD: ND (^ <4%)
AG: ND (^ <4%)
AN: ND (^ <4%)
AP: ND (^ <4%)
AX: ND (^ <4%)
CE: ND (^ <4%)
HL: ND (^ <4%)
MS: ND (^ <4%)
PS: ND (^ <4%)
SH: ND (^ <4%)
UK (hydrochloride, 3 mg/kg): ND (^ <4%)

CCc1sc(CC)c2c1CCC(NC)C2 (single isomer, unassigned) [Compound 118, 1,3-diethyl-N-methyl-4,5,6,7-tetrahydro-2-benzothiophen-5-amine hydrochloride]
MED (minimal effective dose): >3 mpk
AD: ND (^ <4%)
AG: ND (^ <4%)
AN: ND (^ <4%)
AP: ND (^ <4%)
AX: ND (^ <4%)
CE: ND (^ <4%)
HL: ND (^ <4%)
MS: ND (^ <4%)
PS: ND (^ <4%)
SH: ND (^ <4%)
UK (hydrochloride, 3 mg/kg): + (≥4%)

CN(C)C1(C)CCc2ccsc2C1 (single isomer, unassigned) [Compound 119, N, N, 6-trimethyl-5,7-dihydro-4H-benzothiophen-6-amine hydrochloride]
minimal effective dose: 3 mg/kg
AD: ND (^ <4%)
AG: ND (^ <4%)
AN: ND (^ <4%)
AP: ND (^ <4%)
AX: ++++ (≥74%)
CE: ND (^ <4%)
HL: ND (^ <4%)
MS: ND (^ <4%)
PS: ND (^ <4%)
SH: ND (^ <4%)
UK: ND (^ <4%)

CN(C)C1CCc2csc(C(F)(F)F)c2C1 (single isomer, unassigned) [Compound 120, N,N-dimethyl-3-(trifluoromethyl)-4,5,6,7-tetrahydro-2-benzothiophen-5-amine hydrochloride]
minimal effective dose: 3 mg/kg
AD: ND (^ <4%)
AG: ND (^ <4%)
AN: ND (^ <4%)
AP: ++++ (≥74%)
AX: ND (^ <4%)
CE: ND (^ <4%)
HL: ND (^ <4%)
MS: ND (^ <4%)
PS: ND (^ <4%)
SH: ND (^ <4%)
UK: ND (^ <4%)

CN(C)C1(C)CCc2cscc2C1 (single isomer, unassigned) [Compound 121, N,N, 5-trimethyl-6,7-dihydro-4H-2-benzothiophen-5-amine hydrochloride]
minimal effective dose: 3 mg/kg
AD: ND (^ <4%)
AG: ND (^ <4%)
AN: ND (^ <4%)
AP: + (≥4%)
AX: + (≥4%)
CE: ND (^ <4%)
HL: ND (^ <4%)
MS: ND (^ <4%)
PS: ND (^ <4%)
SH: ND (^ <4%)
UK: +++ (≥49%)
